Test results from patent US12304881B2, “Trientine tetrahydrochloride and a method of preparation and a pharmaceutical composition thereof” (Yu-Jet Co., Ltd., priority 2022, dated 2025).
Where a name gives a salt, the structure may show the parent alone.

Assays:
[1] = as disclosed in CN102924289B; cited from earlier work

| stability (impurity by TLC) in words | Structure (SMILES) | stability, compared between hydrochloride salts [1] |
| --- | --- | --- |
| – | NCCNCCNCCN [TETA·2HCl, trientine dihydrochloride] | worse than that of TETA·4HCl |
| good enough | NCCNCCNCCN [TETA·4HCl Form N, trientine tetrahydrochloride] | – |
